Results published in patent US20100068200A1, “Methods and Compositions for Inhibiting Atherosclerosis and Vascular Inflammation” (THE UNIVERSITY OF CONNECTICUT, priority 2008, published 2010).
Where a SMILES comes first, the peptide text is derived from it. The star is where a group is joined. Cbz = O=C(OCc1ccccc1)*

Key:
caspase-11 = caspase-11 protein expression in elicited peritoneal macrophages (western blot); type: cell-based; conditions: mouse elicited peritoneal macrophages; oxLDL 50 μg/ml or TNFα 50 ng/ml, 8 hrs
Experimental: Isolation of Thioglycolate-Elicited Peritoneal Cells. Mice were injected i.p. with 2 ml of 3% thioglycolate. Four days later, the peritoneal fluid was collected, and cells monolayer was prepared by addition of 1 ml/well (2×10^6 macrophages) into 35 mm culture dishes. Macrophage adhesion was allowed to proceed for 4 h at 37° C. in a 5% CO2 atmosphere.
Immunoprecipitation experiments. Cell or spleen extracts were prepared with RIPA buffer (25 mM Tris-HCl pH 7.6, 150 mM NaCl, 1% NP-40, 1% sodium deoxycholate, 0.1% SDS). Caspase-1 was immunoprecipitated with polyclonal rabbit anti-caspase-1 antibody (Santa Cruz) crosslinked to protein A beads and Caspase-11 was immunoprecipitated with monoclonal rat anti-caspase-11 antibody, crosslinked to protein G beads. For western blot analysis, BMDM were treated with LPS (1 μg/ml, E. coli serotype 026:B6; Sigma). Aortas or cells were solubilized in RIPA buffer or 2×SDS-sample buffer (20 mM DTT, 6% SDS, 0.25 M Tris pH 6.8, 10% Glycerol, bromophenyl blue, protease inhibitors, 1 mM sodium orthovanadate and 1 mM NaF), sonicated, boiled and separated by SDS-PAGE gel electrophoresis. […] Cells were treated as indicated with 1 μg/ml LPS (Sigma) and 50 ng/ml TNFα (Sigma) Immunoreactive bands density was quantified with Image Pro Plus Analysis Software (Media Cybernetics).

S1p2r−/− macrophage = experiment: reversal of caspase-11 null phenotype of S1p2r−/− macrophage; type: cell-based, mouse; conditions: MG132 1-20 μM, chloroquine 10-100 μM, data not shown

Compound | caspase-11 protein expression after stimulus (caspase-11) | reversal of caspase-11 null phenotype (S1p2r−/− macrophage)
TNFα | upregulates | 
CC(C)C[C@@H](C=O)NC(=O)[C@H](CC(C)C)NC(=O)[C@H](CC(C)C)NC(=O)OCc1ccccc1 [MG132] (Cbz-Leu-Leu-Leu-aldehyde) |  | could not reverse
